Test results published in PMC5622171 (Nature Communications, 2017).

What was measured:
Test in all cases: KINOMEscan kinase profiling
Format in all cases: binding
[1] = target: T1, ACVR1B (Homo sapiens, UniProt P36896); conditions: read-out: %Inhibition by 10 μM SPA70
T1 construct: purchased DiscoverX (Ambit Biosciences) KINOMEscan
Procedure, shortened: (§1)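 KINOMEscan profiling followed a published protocol. Kinases whose inhibition exceeded a set cut-off were then tested in a dilution series beginning at 30 µM.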

[2] = target: T2, BMPR1A (Homo sapiens, UniProt P36894); conditions: read-out: %Inhibition by 10 μM SPA70
T2 construct: purchased DiscoverX (Ambit Biosciences) KINOMEscan
Procedure, shortened: as §1

[3] = target: T3, CAMK2A (Homo sapiens, UniProt Q9UQM7); conditions: read-out: %Inhibition by 10 μM SPA70
T3 construct: purchased DiscoverX (Ambit Biosciences) KINOMEscan
Procedure, shortened: as §1

[4] = target: T4, CAMK2D (Homo sapiens, UniProt Q13557); conditions: read-out: %Inhibition by 10 μM SPA70
T4 construct: purchased DiscoverX (Ambit Biosciences) KINOMEscan
Procedure, shortened: as §1

[5] = target: T5, CDKL2 (Homo sapiens, UniProt Q92772); conditions: read-out: %Inhibition by 10 μM SPA70
T5 construct: purchased DiscoverX (Ambit Biosciences) KINOMEscan
Procedure, shortened: as §1

[6] = target: T6, CDKL3 (Homo sapiens, UniProt Q8IVW4); conditions: read-out: %Inhibition by 10 μM SPA70
T6 construct: purchased DiscoverX (Ambit Biosciences) KINOMEscan
Procedure, shortened: as §1

[7] = target: T7, CSNK1D (Homo sapiens, UniProt P48730); conditions: read-out: %Inhibition by 10 μM SPA70
T7 construct: purchased DiscoverX (Ambit Biosciences) KINOMEscan
Procedure, shortened: as §1

[8] = target: T8, CSNK1G1 (Homo sapiens, UniProt Q9HCP0)
T8 construct: purchased DiscoverX (Ambit Biosciences) KINOMEscan
Procedure, shortened: as §1

[9] = target: T9, CSNK1G2 (Homo sapiens, UniProt P78368)
T9 construct: purchased DiscoverX (Ambit Biosciences) KINOMEscan
Procedure, shortened: as §1

[10] = target: T10, CSNK1G3 (Homo sapiens, UniProt Q9Y6M4)
T10 construct: purchased DiscoverX (Ambit Biosciences) KINOMEscan
Procedure, shortened: as §1

[11] = target: T11, DAPK3 (Homo sapiens, UniProt O43293); conditions: read-out: %Inhibition by 10 μM SPA70
T11 construct: purchased DiscoverX (Ambit Biosciences) KINOMEscan
T11 sequence (O43293 whole entry): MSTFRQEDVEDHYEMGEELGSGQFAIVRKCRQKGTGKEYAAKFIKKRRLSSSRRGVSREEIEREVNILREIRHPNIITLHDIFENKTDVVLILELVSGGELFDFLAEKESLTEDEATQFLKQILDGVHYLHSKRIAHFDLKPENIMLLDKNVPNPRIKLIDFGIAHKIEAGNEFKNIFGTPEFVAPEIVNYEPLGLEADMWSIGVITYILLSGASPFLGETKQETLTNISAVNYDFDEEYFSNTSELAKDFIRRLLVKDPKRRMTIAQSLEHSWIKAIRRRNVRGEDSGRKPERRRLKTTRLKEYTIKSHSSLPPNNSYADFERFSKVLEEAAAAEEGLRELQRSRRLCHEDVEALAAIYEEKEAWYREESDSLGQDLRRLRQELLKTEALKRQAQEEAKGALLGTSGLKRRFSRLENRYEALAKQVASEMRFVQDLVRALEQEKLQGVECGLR
Procedure, shortened: as §1

[12] = target: T12, DDR2 (Homo sapiens, UniProt Q16832); conditions: read-out: %Inhibition by 10 μM SPA70
T12 construct: purchased DiscoverX (Ambit Biosciences) KINOMEscan
Procedure, shortened: as §1

[13] = target: T13, DRAK1 (Homo sapiens, UniProt Q9UEE5); conditions: read-out: %Inhibition by 10 μM SPA70
T13 construct: purchased DiscoverX (Ambit Biosciences) KINOMEscan
Procedure, shortened: as §1

[14] = target: T14, DYRK1B (Homo sapiens, UniProt Q9Y463); conditions: read-out: %Inhibition by 10 μM SPA70
T14 construct: purchased DiscoverX (Ambit Biosciences) KINOMEscan
Procedure, shortened: as §1

[15] = target: T15, EPHA8 (Homo sapiens, UniProt P29322); conditions: read-out: %Inhibition by 10 μM SPA70
T15 construct: purchased DiscoverX (Ambit Biosciences) KINOMEscan
Procedure, shortened: as §1

[16] = target: T16, EPHB1 (Homo sapiens, UniProt P54762); conditions: read-out: %Inhibition by 10 μM SPA70
T16 construct: purchased DiscoverX (Ambit Biosciences) KINOMEscan
Procedure, shortened: as §1

[17] = target: T17, ERK1 (Homo sapiens, UniProt P27361); conditions: read-out: %Inhibition by 10 μM SPA70
T17 construct: purchased DiscoverX (Ambit Biosciences) KINOMEscan
Procedure, shortened: as §1

[18] = target: T18, HIPK3 (Homo sapiens, UniProt Q9H422); conditions: read-out: %Inhibition by 10 μM SPA70
T18 construct: purchased DiscoverX (Ambit Biosciences) KINOMEscan
Procedure, shortened: as §1

[19] = target: T19, IRAK3 (Homo sapiens, UniProt Q9Y616); conditions: read-out: %Inhibition by 10 μM SPA70
T19 construct: purchased DiscoverX (Ambit Biosciences) KINOMEscan
T19 sequence (Q9Y616 whole entry): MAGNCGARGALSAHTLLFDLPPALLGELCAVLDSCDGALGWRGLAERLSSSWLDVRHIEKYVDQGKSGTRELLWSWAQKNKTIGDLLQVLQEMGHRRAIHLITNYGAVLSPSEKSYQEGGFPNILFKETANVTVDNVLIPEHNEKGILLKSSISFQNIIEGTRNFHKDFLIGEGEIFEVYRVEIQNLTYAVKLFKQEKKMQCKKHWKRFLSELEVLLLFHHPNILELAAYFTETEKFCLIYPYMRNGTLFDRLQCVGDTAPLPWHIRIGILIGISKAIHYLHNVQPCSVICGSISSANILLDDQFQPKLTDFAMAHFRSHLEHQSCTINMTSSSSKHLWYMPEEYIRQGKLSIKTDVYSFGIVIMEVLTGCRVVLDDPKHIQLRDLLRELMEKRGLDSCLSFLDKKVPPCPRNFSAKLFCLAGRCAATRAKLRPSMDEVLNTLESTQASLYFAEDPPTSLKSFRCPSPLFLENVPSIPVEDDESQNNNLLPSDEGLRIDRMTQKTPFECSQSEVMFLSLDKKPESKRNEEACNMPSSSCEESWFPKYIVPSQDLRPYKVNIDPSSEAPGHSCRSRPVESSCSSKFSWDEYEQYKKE
Procedure, shortened: as §1

[20] = target: T20, LCK (Homo sapiens, UniProt P06239); conditions: read-out: %Inhibition by 10 μM SPA70
T20 construct: purchased DiscoverX (Ambit Biosciences) KINOMEscan
Procedure, shortened: as §1

[21] = target: T21, MAPKAPK2 (Homo sapiens, UniProt P49137); conditions: read-out: %Inhibition by 10 μM SPA70
T21 construct: purchased DiscoverX (Ambit Biosciences) KINOMEscan
Procedure, shortened: as §1

[22] = target: T22, MARK4 (Homo sapiens, UniProt Q96L34)
T22 construct: purchased DiscoverX (Ambit Biosciences) KINOMEscan
Procedure, shortened: as §1

[23] = target: T23, MEK1 (Homo sapiens, UniProt Q02750); conditions: read-out: %Inhibition by 10 μM SPA70
T23 construct: purchased DiscoverX (Ambit Biosciences) KINOMEscan
Procedure, shortened: as §1

[24] = target: T24, MEK2 (Homo sapiens, UniProt P36507); conditions: read-out: %Inhibition by 10 μM SPA70
T24 construct: purchased DiscoverX (Ambit Biosciences) KINOMEscan
T24 sequence (P36507 whole entry): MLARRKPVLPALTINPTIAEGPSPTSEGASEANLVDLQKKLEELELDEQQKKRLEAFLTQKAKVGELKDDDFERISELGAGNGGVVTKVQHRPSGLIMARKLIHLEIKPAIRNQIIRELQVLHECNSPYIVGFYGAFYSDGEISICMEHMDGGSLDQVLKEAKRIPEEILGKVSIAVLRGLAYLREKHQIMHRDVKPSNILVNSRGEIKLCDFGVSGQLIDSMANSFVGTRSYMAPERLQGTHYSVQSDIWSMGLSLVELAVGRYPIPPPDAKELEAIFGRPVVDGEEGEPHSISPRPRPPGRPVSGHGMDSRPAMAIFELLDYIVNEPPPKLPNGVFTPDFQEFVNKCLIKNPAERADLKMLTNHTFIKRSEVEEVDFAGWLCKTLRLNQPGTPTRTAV
Procedure, shortened: as §1

[25] = target: T25, MUSK (Homo sapiens, UniProt O15146); conditions: read-out: %Inhibition by 10 μM SPA70
T25 construct: purchased DiscoverX (Ambit Biosciences) KINOMEscan
Procedure, shortened: as §1

[26] = target: T26, PAK2 (Homo sapiens, UniProt Q13177); conditions: read-out: %Inhibition by 10 μM SPA70
T26 construct: purchased DiscoverX (Ambit Biosciences) KINOMEscan
Procedure, shortened: as §1

[27] = target: T27, PAK7 (Homo sapiens, UniProt Q9P286); conditions: read-out: %Inhibition by 10 μM SPA70
T27 construct: purchased DiscoverX (Ambit Biosciences) KINOMEscan
Procedure, shortened: as §1

[28] = target: T28, PIP5K2C (Homo sapiens, UniProt Q8TBX8); conditions: read-out: %Inhibition by 10 μM SPA70
T28 construct: purchased DiscoverX (Ambit Biosciences) KINOMEscan
Procedure, shortened: as §1

[29] = target: T29, PKN2 (Homo sapiens, UniProt Q16513); conditions: read-out: %Inhibition by 10 μM SPA70
T29 construct: purchased DiscoverX (Ambit Biosciences) KINOMEscan
Procedure, shortened: as §1

[30] = target: T30, PRKCD (Homo sapiens, UniProt Q05655); conditions: read-out: %Inhibition by 10 μM SPA70
T30 construct: purchased DiscoverX (Ambit Biosciences) KINOMEscan
Procedure, shortened: as §1

[31] = target: T31, PRKCH (Homo sapiens, UniProt P24723); conditions: read-out: %Inhibition by 10 μM SPA70
T31 construct: purchased DiscoverX (Ambit Biosciences) KINOMEscan
Procedure, shortened: as §1

[32] = target: T32, PRKX (Homo sapiens, UniProt P51817); conditions: read-out: %Inhibition by 10 μM SPA70
T32 construct: purchased DiscoverX (Ambit Biosciences) KINOMEscan
Procedure, shortened: as §1

[33] = target: T33, RPS6KA4(Kin.Dom.1-N-terminal) (Homo sapiens, UniProt O75676); conditions: read-out: %Inhibition by 10 μM SPA70
T33 construct: RPS6KA4(Kin.Dom.1-N-terminal); purchased DiscoverX (Ambit Biosciences) KINOMEscan
Procedure, shortened: as §1

[34] = target: T34, RSK1(Kin.Dom.2-C-terminal) (Homo sapiens, UniProt Q15418); conditions: read-out: %Inhibition by 10 μM SPA70
T34 construct: RSK1(Kin.Dom.2-C-terminal); purchased DiscoverX (Ambit Biosciences) KINOMEscan
Procedure, shortened: as §1

[35] = target: T35, RSK4(Kin.Dom.1-N-terminal) (Homo sapiens, UniProt Q9UK32)
T35 construct: RSK4(Kin.Dom.1-N-terminal); purchased DiscoverX (Ambit Biosciences) KINOMEscan
Procedure, shortened: as §1

[36] = target: T36, TAOK1 (Homo sapiens, UniProt Q7L7X3); conditions: read-out: %Inhibition by 10 μM SPA70
T36 construct: purchased DiscoverX (Ambit Biosciences) KINOMEscan
T36 sequence (Q7L7X3 whole entry): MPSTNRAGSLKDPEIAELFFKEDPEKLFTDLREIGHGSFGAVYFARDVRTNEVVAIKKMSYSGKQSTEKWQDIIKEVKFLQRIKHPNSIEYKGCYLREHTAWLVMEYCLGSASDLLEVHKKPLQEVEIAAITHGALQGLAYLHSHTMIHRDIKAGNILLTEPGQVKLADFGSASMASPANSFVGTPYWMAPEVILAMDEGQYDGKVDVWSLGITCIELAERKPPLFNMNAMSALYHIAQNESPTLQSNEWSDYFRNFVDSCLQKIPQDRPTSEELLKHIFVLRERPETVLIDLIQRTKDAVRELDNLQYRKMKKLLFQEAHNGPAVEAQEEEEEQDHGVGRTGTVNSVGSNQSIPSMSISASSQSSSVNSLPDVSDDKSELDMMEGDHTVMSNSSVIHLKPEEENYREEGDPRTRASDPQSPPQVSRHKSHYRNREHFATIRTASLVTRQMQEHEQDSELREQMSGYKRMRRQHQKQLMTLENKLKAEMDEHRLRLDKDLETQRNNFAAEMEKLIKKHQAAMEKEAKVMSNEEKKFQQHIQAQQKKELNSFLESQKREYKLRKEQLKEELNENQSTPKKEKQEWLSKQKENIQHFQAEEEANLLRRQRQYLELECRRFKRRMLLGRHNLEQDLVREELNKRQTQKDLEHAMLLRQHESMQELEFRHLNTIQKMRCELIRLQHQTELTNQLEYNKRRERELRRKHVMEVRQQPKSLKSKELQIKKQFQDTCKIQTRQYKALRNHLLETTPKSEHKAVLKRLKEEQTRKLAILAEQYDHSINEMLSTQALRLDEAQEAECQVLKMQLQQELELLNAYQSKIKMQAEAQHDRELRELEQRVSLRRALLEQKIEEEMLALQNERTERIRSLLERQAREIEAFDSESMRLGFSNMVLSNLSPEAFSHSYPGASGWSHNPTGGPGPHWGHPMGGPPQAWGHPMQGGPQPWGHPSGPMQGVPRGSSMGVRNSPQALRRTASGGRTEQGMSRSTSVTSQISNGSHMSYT
Procedure, shortened: as §1

[37] = target: T37, TEC (Homo sapiens, UniProt P42680); conditions: read-out: %Inhibition by 10 μM SPA70
T37 construct: purchased DiscoverX (Ambit Biosciences) KINOMEscan
T37 sequence (P42680 whole entry): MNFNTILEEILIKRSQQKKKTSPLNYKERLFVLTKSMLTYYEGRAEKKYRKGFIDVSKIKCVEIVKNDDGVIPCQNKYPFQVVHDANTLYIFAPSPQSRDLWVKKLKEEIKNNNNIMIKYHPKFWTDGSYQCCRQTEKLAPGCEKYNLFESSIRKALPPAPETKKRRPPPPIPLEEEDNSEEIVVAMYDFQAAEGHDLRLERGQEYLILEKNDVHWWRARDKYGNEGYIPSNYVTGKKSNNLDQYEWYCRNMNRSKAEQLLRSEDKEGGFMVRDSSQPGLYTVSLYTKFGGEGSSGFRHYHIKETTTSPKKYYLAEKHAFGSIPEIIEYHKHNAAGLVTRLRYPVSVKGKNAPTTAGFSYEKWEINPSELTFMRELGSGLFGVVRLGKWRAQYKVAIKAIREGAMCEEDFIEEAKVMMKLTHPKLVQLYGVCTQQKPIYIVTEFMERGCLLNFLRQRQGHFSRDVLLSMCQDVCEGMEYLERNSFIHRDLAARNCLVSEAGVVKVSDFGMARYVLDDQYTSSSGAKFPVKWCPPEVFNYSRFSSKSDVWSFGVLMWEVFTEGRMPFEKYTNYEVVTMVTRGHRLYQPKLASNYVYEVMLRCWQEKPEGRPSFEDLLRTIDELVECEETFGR
Procedure, shortened: as §1

[38] = target: T38, TESK1 (Homo sapiens, UniProt Q15569); conditions: read-out: %Inhibition by 10 μM SPA70
T38 construct: purchased DiscoverX (Ambit Biosciences) KINOMEscan
Procedure, shortened: as §1

[39] = target: T39, TNIK (Homo sapiens, UniProt Q9UKE5); conditions: read-out: %Inhibition by 10 μM SPA70
T39 construct: purchased DiscoverX (Ambit Biosciences) KINOMEscan
T39 sequence (Q9UKE5 whole entry): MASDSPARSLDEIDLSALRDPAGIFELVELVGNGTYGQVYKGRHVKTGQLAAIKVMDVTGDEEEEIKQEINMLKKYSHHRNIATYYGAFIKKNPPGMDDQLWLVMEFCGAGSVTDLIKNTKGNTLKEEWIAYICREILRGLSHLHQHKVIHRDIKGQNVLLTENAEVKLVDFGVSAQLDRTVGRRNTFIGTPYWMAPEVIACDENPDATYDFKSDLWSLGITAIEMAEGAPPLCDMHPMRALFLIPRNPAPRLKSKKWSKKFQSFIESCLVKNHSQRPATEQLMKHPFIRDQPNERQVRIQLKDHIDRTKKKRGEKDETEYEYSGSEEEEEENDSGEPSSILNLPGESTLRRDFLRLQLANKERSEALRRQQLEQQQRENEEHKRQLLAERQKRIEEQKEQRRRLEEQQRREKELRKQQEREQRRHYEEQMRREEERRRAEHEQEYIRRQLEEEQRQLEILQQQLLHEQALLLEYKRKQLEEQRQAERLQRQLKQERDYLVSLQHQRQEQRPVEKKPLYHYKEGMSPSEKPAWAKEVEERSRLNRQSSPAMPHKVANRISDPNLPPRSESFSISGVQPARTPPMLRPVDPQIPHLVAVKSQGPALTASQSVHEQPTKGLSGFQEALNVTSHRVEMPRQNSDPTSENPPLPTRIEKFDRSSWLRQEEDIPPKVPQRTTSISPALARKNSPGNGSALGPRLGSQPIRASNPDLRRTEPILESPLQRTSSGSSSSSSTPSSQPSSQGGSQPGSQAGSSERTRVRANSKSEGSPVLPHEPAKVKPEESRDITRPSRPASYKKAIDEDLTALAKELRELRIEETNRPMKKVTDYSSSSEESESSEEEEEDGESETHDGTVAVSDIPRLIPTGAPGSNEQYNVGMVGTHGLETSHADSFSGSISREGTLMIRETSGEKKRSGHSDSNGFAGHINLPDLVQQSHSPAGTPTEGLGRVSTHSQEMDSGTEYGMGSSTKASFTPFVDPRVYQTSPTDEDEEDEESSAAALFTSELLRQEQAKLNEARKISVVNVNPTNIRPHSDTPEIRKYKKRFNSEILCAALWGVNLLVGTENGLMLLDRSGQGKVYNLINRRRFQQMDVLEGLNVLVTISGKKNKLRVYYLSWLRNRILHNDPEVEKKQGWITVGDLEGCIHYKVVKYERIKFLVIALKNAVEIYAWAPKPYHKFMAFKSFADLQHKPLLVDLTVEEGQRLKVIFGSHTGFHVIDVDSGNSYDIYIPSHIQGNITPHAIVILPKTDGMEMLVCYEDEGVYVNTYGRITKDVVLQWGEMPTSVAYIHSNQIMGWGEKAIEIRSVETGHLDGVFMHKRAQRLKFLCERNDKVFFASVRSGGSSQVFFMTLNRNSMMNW
Procedure, shortened: as §1

[40] = target: T40, VRK2 (Homo sapiens, UniProt Q86Y07); conditions: read-out: %Inhibition by 10 μM SPA70
T40 construct: purchased DiscoverX (Ambit Biosciences) KINOMEscan
T40 sequence (Q86Y07 whole entry): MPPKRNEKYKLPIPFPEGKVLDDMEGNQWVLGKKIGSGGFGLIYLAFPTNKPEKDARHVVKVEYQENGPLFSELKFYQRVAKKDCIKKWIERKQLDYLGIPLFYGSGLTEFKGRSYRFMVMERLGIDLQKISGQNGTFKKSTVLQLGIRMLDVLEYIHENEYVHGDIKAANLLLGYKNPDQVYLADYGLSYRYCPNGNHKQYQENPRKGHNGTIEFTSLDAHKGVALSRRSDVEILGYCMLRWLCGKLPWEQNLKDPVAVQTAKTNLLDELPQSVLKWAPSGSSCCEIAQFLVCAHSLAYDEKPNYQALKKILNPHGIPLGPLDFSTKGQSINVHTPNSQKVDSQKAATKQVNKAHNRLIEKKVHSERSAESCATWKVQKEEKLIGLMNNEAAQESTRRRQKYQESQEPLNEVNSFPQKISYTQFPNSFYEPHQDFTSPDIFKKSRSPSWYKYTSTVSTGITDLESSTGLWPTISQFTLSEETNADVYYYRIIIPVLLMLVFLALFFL
Procedure, shortened: as §1

Which results are given for `COc1ccc(OC)c(-n2nnc(S(=O)(=O)c3ccc(C(C)(C)C)cc3)c2C)c1` [SPA70]?
inhibition at 10 µM [1]: 0%; inhibition at 10 µM [2]: 2%; inhibition at 10 µM [3]: 0%; inhibition at 10 µM [4]: 0%; inhibition at 10 µM [5]: 22%; inhibition at 10 µM [6]: 6%; inhibition at 10 µM [7]: 3%; %Inhibition by 10 μM SPA70 [8]: 0%; %Inhibition by 10 μM SPA70 [9]: 0%; %Inhibition by 10 μM SPA70 [10]: 0%; inhibition at 10 µM [11]: 0%; inhibition at 10 µM [12]: 0%; inhibition at 10 µM [13]: 7%; inhibition at 10 µM [14]: 0%; inhibition at 10 µM [15]: 13%; inhibition at 10 µM [16]: 0%; inhibition at 10 µM [17]: 0%; inhibition at 10 µM [18]: 10%; inhibition at 10 µM [19]: 15%; inhibition at 10 µM [20]: 2%; inhibition at 10 µM [21]: 20%; %Inhibition by 10 μM SPA70 [22]: 0%; inhibition at 10 µM [23]: 11%; inhibition at 10 µM [24]: 4%; inhibition at 10 µM [25]: 0%; inhibition at 10 µM [26]: 0%; inhibition at 10 µM [27]: 26%; inhibition at 10 µM [28]: 10%; inhibition at 10 µM [29]: 0%; inhibition at 10 µM [30]: 5%; inhibition at 10 µM [31]: 13%; inhibition at 10 µM [32]: 8%; inhibition at 10 µM [33]: 0%; inhibition at 10 µM [34]: 12%; %Inhibition by 10 μM SPA70 [35]: 4%; inhibition at 10 µM [36]: 15%; inhibition at 10 µM [37]: 0%; inhibition at 10 µM [38]: 0%; inhibition at 10 µM [39]: 10%; inhibition at 10 µM [40]: 0%
